Measurements as given in doi:10.1101/2025.03.14.643404, “A Bivalent Molecular Glue Linking Lysine Acetyltransferases to Oncogene-induced Cell Death” (bioRxiv, 2025).

System: c-MYC protein
Assay: Western blot of c-MYC protein in SUDHL5
Type: cell-based, human
Method: Cells were plated at 1M/mL and treated with drug at indicated timepoints and doses. Cells were harvested on ice in RIPA buffer (50mM Tris-HCl pH 8, 150mM NaCl, 1% NP-40, 0.1% DOC, 1% SDS, protease inhibitor cocktail (~20 mg/ml pepstatin, aprotinin, and leupeptin), 1mM DTT) and 1:200 benzonase (Sigma E1014) was added and incubated for 20 mins. After 10 min centrifugation at 14,000g and 4 °C, the supernatant was collected and protein concentration was measured by Bradford. SDS-PAGE analysis was carried out in either 4–12% or 12% Bis-Tris PAGE gels (Thermo NW04120 and NW04127). Antibodies used for immunoblots were: BCL6 (1:1000 v:v, Cell Signaling D65C10), p300 (1:250, Santa Cruz F-4 sc-48343), CBP (1:1000, Cell Signaling D6C5), c-MYC (1:1000, Cell Signaling D84C12), Caspase-3 (1:1000, Cell Signaling 9662), GAPDH (1:2000, Santa Cruz 6C5 sc-32233), BBC3/PUMA (1:1000, Cell Signaling E2P7G), FOXO3 (1:1000, Cell Signaling 75D8), H3K27ac (1:1000, abcam ab4729), H2BK20ac (1:1000, Cell Signaling D709W), H3 (1:10,000, Cell Signaling 1B1B2), H2B (1:10,000, Cell Signaling D2H6), p27/CDKN1B (1:1000, Cell Signaling D69C12), and TP53 (1:1000, Santa Cruz DO-1). ImageStudio (Licor) was used for blot imaging and quantification.

- IC50 (SUDHL5, 4 hours, read-out: IC50 of c-MYC protein repression): ~0.8 nM
SMILES: CNC(=O)COc1cc2cc(Nc3nc(N4CCC(C(=O)N5CCN(CCC(=O)N6CCC(n7nc(N8CCCc9cc(-c%10cnn(C)c%10)c(C(F)F)cc98)c8c7CCN(C(=O)NC)C8)CC6)CC5)CC4)ncc3Cl)cc(OC)c2n(C)c1=O [TCIP3]
- t1/2 of c-MYC protein decrease (SUDHL5, 1 nM): 2.5 h
